Results reported in patent US9790221B2, “Heteroaryl compounds as IRAK inhibitors and uses thereof” (Merck Patent GmbH, priority 2014, dated 2017).

Key:
[1] = target: IRAK1 (His-TEV-IRAK1 (194-712)) (Homo sapiens (Human), UniProt P51617); test: IRAK1 enzymatic assay; type: biochemical
In short: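 Compounds ([…] down to 1 nM) were incubated 3 h at 30° C with His-TEV-IRAK1 (194-712, 15 ng/well) and 1 μM [33P]-labelled ATP in 50 mM Hepes pH 7.0, 10 mM MgCl2. After EDTA stop and washing, the retained autophosphorylation signal was measured by scintillation in streptavidin-coated plates.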

IRAK4 = IRAK4 (Homo sapiens (Human), UniProt Q9NWZ3); test: IRAK4 enzymatic assay; type: biochemical
IRAK4, sequence (Q9NWZ3 whole entry): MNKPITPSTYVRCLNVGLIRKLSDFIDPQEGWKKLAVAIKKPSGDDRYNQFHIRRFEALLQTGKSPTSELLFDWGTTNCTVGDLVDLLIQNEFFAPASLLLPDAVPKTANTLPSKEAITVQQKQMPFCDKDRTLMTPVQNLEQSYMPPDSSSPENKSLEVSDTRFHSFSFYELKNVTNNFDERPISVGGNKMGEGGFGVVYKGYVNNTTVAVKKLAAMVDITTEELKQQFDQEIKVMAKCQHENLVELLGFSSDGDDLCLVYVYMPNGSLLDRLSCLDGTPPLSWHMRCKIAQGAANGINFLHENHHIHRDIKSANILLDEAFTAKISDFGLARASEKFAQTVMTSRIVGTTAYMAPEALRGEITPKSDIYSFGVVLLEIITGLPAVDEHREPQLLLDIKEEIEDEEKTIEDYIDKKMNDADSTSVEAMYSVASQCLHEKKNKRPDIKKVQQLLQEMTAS
In short: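 Radiometric streptavidin FlashPlate read: 3 h, 30° C incubation of His-TEV-IRAK4 (20 ng/well), STK1-biotin substrate (300 nM) and ATP (2 μM, [^33P]-labelled) in Hepes pH 7.0, MgCl2 10 mM, MnCl2 5 mM. Compounds from 20 µM down to 1 nM, 2% DMSO controls; reaction quenched with EDTA.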

[2] = tested on: TLR7 induced IL-6 secretion in human mononuclear cells (PBMC's); test: TLR7 induced IL-6 in human PBMC's; type: cell-based; conditions: Homo sapiens, PBMC, read-out: TLR7 induced IL-6 secretion in hPBMC's (IC50)
In short: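 Fresh or frozen healthy-donor PBMCs preincubated 30 min at 37° C. with compound (25 uM to 0.4 nM; vehicle 0.25% DMSO) in RPMI/10% HI-FBS. Stimulated with TLR7 ligand (2 uM) for 16-18 h at 37° C.; supernatant IL-6 measured by AlphaLISA.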

IRAK1 (His-TEV-IRAK1 (194-712)), sequence (P51617 194-712): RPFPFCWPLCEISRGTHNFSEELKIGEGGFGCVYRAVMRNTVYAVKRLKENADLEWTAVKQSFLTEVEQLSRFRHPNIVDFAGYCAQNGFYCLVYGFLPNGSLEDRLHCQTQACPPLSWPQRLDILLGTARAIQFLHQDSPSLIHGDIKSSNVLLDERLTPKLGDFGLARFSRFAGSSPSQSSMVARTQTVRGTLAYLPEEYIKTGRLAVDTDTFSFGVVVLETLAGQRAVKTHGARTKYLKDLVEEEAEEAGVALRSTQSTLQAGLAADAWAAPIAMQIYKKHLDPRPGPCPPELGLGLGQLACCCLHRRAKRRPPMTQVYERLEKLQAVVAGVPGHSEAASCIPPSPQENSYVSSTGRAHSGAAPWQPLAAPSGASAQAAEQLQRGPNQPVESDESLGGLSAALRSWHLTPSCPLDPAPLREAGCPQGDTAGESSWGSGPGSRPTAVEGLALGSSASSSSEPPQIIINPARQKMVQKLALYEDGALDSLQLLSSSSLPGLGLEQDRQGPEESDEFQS

Compound	IC50 [1] [µM]	IC50 (IRAK4) [µM]	IC50 [2] [µM]
Cn1cc(-c2cccc(-c3ncc(-c4ccn(C)n4)c(NCC4CNCCO4)n3)c2)cn1 (stereo not drawn) [Example 115]	> 5	0.1 to 1	0.1 to 1
Cn1cc(-c2cccc(-c3ncc(-c4cnn(C)c4)c(N4CCC(O)CC4)n3)c2)cn1 [Example 219]	0.1 to 1	< 0.1	1 to 5
Cn1cc(-c2cccc(-c3ncc(-c4cnn(C)c4)c(NC45CCC(NS(C)(=O)=O)(CC4)CC5)n3)c2)cn1 [Example 187]	< 0.1	< 0.1	0.1 to 1
Cn1cc(-c2cccc(-c3ncc(-c4cnn(C)c4)c(NC4CC(CN)C4)n3)c2)cn1 (stereo not drawn) [Example 188]	< 0.1	< 0.1	1 to 5
Cn1cc(-c2cccc(-c3ncc(-c4ccn(C)n4)c(NC4CCOC4)n3)c2)cn1 (stereo not drawn) [Example 119]	1 to 5	0.1 to 1	> 5
Cn1cc(-c2cccc(-c3ncc(-c4cnn(C)c4)c(NCCN4CCOC4=O)n3)c2)cn1 [Example 38]	1 to 5	0.1 to 1	> 5
Cn1cc(-c2cccc(-c3ncc(-c4cnn(C)c4)c(N[C@H]4C[C@@H](N)C4)n3)c2)cn1 [Example 62]	1 to 5	0.1 to 1	1 to 5

More lines, main results first:

IC50 [1] [µM]	IC50 (IRAK4) [µM]	Compound	IC50 [2] [µM]
> 5	< 0.1	CN[C@H]1CCC[C@H](Nc2nc(-c3cccc(-c4cnn(C)c4)c3)ncc2-c2cnn(C)c2)[C@@H]1O (racemic) [Example 281, (1R,2S,6S)-2-Methylamino-6-{5-(1-methyl-1-pyrazol-4-yl)-2-[3-(1-methyl-1H-pyrazol-4-yl)-phenyl]-pyrimidin-4-ylamino}-cyclohexanol]	1 to 5
1 to 5	< 0.1	Cn1cc(-c2cccc(-c3ncc(-c4cnn(C)c4)c(NC4CCC(O)C4)n3)c2)cn1 (racemic) [Example 167]	1 to 5
0.1 to 1	< 0.1	Cn1cc(-c2cccc(-c3ncc(-c4cnn(C)c4)c(N[C@H]4CCCC[C@@H](O)[C@H]4O)n3)c2)cn1 (stereo in doubt) [Example 248]	0.1 to 1
